Laboratory results from US20140315972A1, “RS)-2-(2-oxo-4-phenylpyrrolidin-1-yl)acetamide compound having modulatory activity with a commensurate effect, pharmaceutical substance (variants) and its application, composition (variants) thereof” (priority 2011, published 2014).
Marks after values point to notes of the source that are not given here.

Tests used:
[1] = test system: rats; experiment: Locomotor activity in Opto-varimex, HEF and LEF rats; assay type: in vivo
Text: (RS)-2-(2-oxo-4-phenylpyrrolidin-1-yl)acetamide has a psychomodulatory activity with the commensurate effect on motor activity of rats.

[2] = test system: mice; experiment: Cross maze exploratory behavior, HEF and LEF mice; assay type: in vivo; conditions: i.p. once a day 5 days, Compounds 1 and 4 100 mg/kg, Piracetam 200 mg/kg
[3] = Solubility; assay type: physicochemical
Text: The crystalline powder of the Phenotropil substances is not volatile, has white, rarely white to slightly yellowish or slightly cream color, bitter taste (bitter taste that disappears in the mouth rather quickly after dissolution, leaving no unpleasant sensations). In the related products, the bitter taste persists. The Compounds are sparingly soluble in water and saline, moderately soluble in 96.0% alcohol and chloroform. Readily soluble in water and saline under heating, but the solutions are not stable during cooling and storage under normal conditions (not more than 2 hours, which is acceptable for the extemporaneous preparations and research), moderately soluble in 5.0% glucose solution, dissolve well in the presence of solubilizers and emulsifiers. Tween80 and cyclodextrins increase solubility in water, especially Tween80, while cyclodextrins have limitations by concentration. Sterile 0.001-3% solutions of Phenotropil in the presence of cyclodextrin or Tween (water for injection, Phenotropil, cyclodextrin (or Tween solution) were thoroughly stirred for 30 minutes, filtered, dispensed into ampoules of neutral glass, the ampoules were sealed and sterilized for 15 minutes at 120° C.). Sterile solutions are storage stable for at least 12 months. The ultimate shelf life is not specified; the samples are being stored.

[4] = normal conditions and high physical activity; cited from earlier work
[5] = Daily diuresis in non-obese humans; assay type: in vivo, human; conditions: for Daily urine volume (ml/day, %): adult humans, background (not treated) = 100
Procedure: The effect of Phenotropil (25, 50 and 100 mg in the morning) on diuresis was investigated in non-obese groups (males and females 23-47 years) for 10 days. The daily volume of urine when treated with placebo and Phenotropil was recorded.

[6] = Acute toxicity, single intraperitoneal injection in rats aged 30-35 days; assay type: in vivo; conditions: both sexes, white outbred, rat, in vivo, ip; rats 30-35 days; single i.p.
Procedure: (§1) Tables 2, 2.1 and 2.2 present the results of acute toxicity studies of the Compounds with active substance content in at least white outbred male mice (body weight 18-24 g) and white outbred rats 30-35 days of age, of both sexes with a single dose. Calculation of toxic doses was made using the Wilcoxon and Litchfield method. Observations were made over 24 hours and 14 days after a single dose.
(§2) LD50 in rat pups after intragastric administration was not found. Intragastric administration to rat pups of doses of more than 1000 mg/kg is technically impossible due to the small volume of the stomach (Table 2.2).

[7] = test system: rats; experiment: as above; assay type: in vivo
Procedure: as §1, §2

[8] = test system: mice; experiment: Fertility of female mice aged 510 days; assay type: in vivo
Procedure: Investigation of the effect of Phenotropil on the fertility of mice was performed in the spring period in females aged 510 days (30 animals per group). Termination of the reproductive age was established by placing every three females to a fertile male. Mating was determined by the presence of vaginal plugs. Females not mated during one month were included in the study. Throughout the entire study period (32 days), Phenotropil was administered one time per day intragastrically to the experimental group in a dose of 100 mg/kg with distilled water; the control animals received distilled water. On the eighth day of the experiment, the females were introduced to males in the following combination: two experimental and one control animal or […]. The procedure was repeated for females not covered at each stage. The same fertile males were not used for mating.

[9] = 100 mg/kg i.g. daily, by the morning of day 9

NC(=O)CN1CC(c2ccccc2)CC1=O (racemic) [Compound 1, (RS)-2-(2-oxo-4-phenylpyrrolidine-1-yl)acetamide]
locomotor activity vs control ([1]; HEF rats, 5 mg/kg i.g., 0-5 min): −0.06% | locomotor activity vs control ([1]; HEF rats, 5 mg/kg i.g., 5-10 min): +7.36% * | locomotor activity vs control ([1]; HEF rats, 5 mg/kg i.g., 10-15 min): −7.36% | locomotor activity vs control ([1]; HEF rats, 5 mg/kg i.g., 15-20 min): −96.53% * | locomotor activity vs control ([1]; HEF rats, 5 mg/kg i.g., 20-25 min): −103.15% * | locomotor activity vs control ([1]; HEF rats, 5 mg/kg i.g., 25-30 min): +207.1% * | locomotor activity vs control ([1]; HEF rats, 10 mg/kg i.g., 0-5 min): −4.2% | locomotor activity vs control ([1]; HEF rats, 10 mg/kg i.g., 5-10 min): −8.4% | locomotor activity vs control ([1]; HEF rats, 10 mg/kg i.g., 10-15 min): −3.73% | locomotor activity vs control ([1]; HEF rats, 10 mg/kg i.g., 15-20 min): +7.44% | locomotor activity vs control ([1]; HEF rats, 10 mg/kg i.g., 20-25 min): −4.72% | locomotor activity vs control ([1]; HEF rats, 10 mg/kg i.g., 25-30 min): 0% | locomotor activity vs control ([1]; HEF rats, 10 mg/kg i.g., accumulated, listed as Phenotropil, 10 mg/kg): −4.23% | locomotor activity vs control ([1]; LEF rats, 5 mg/kg i.g., 0-5 min): +15.0% * | locomotor activity vs control ([1]; LEF rats, 5 mg/kg i.g., 5-10 min): +6.18% | locomotor activity vs control ([1]; LEF rats, 5 mg/kg i.g., 10-15 min): +9.74% | locomotor activity vs control ([1]; LEF rats, 5 mg/kg i.g., 15-20 min): +29.1% * | locomotor activity vs control ([1]; LEF rats, 5 mg/kg i.g., 20-25 min): +2.1% | locomotor activity vs control ([1]; LEF rats, 5 mg/kg i.g., 25-30 min): +10.0% * | locomotor activity vs control ([1]; LEF rats, 10 mg/kg i.g., 0-5 min): +4.31% | locomotor activity vs control ([1]; LEF rats, 10 mg/kg i.g., 5-10 min): +11.31% * | locomotor activity vs control ([1]; LEF rats, 10 mg/kg i.g., 10-15 min): +27.85% | locomotor activity vs control ([1]; LEF rats, 10 mg/kg i.g., 15-20 min): +7.23 * % | locomotor activity vs control ([1]; LEF rats, 10 mg/kg i.g., 20-25 min): +14.39% * | locomotor activity vs control ([1]; LEF rats, 10 mg/kg i.g., 25-30 min): +3.75% | locomotor activity vs control ([1]; population (normal) rats, 5 mg/kg i.g., 0-5 min): +18.06% * | locomotor activity vs control ([1]; population (normal) rats, 5 mg/kg i.g., 5-10 min): −5.95% | locomotor activity vs control ([1]; population (normal) rats, 5 mg/kg i.g., 10-15 min): −13.03% * | locomotor activity vs control ([1]; population (normal) rats, 5 mg/kg i.g., 15-20 min): −22.55% * | locomotor activity vs control ([1]; population (normal) rats, 5 mg/kg i.g., 20-25 min): +50.76% * | locomotor activity vs control ([1]; population (normal) rats, 5 mg/kg i.g., 25-30 min): +50.97% * | locomotor activity vs control ([1]; population (normal) rats, 5 mg/kg i.g., accumulated): +4.28% * | locomotor activity vs control ([1]; population (normal) rats, 10 mg/kg i.g., 0-5 min): +38.8% * | locomotor activity vs control ([1]; population (normal) rats, 10 mg/kg i.g., 5-10 min): −5.78% | locomotor activity vs control ([1]; population (normal) rats, 10 mg/kg i.g., 10-15 min): +5.56% | locomotor activity vs control ([1]; population (normal) rats, 10 mg/kg i.g., 15-20 min): +42.91 * % | locomotor activity vs control ([1]; population (normal) rats, 10 mg/kg i.g., 20-25 min): +95.6% * | locomotor activity vs control ([1]; population (normal) rats, 10 mg/kg i.g., 25-30 min): −91.47% * | locomotor activity vs control ([1]; population (normal) rats, 10 mg/kg i.g., accumulated): +18.0% * | Kt (trigger transmission coefficient) ([2]; HEF mice): 3.3 ± 0.3 | Number of compartment explorations ([2]; HEF mice): 4.3 ± 0.4 // | Number of surveillances ([2]; HEF mice): 1.3 ± 0.2 | Kt (trigger transmission coefficient) ([2]; LEF mice): 3.1 ± 0.35 | Number of compartment explorations ([2]; LEF mice): 5.0 ± 0.5 // | Number of surveillances ([2]; LEF mice): 1.6 ± 0.2 | Kt (trigger transmission coefficient) ([2]; population as a whole): 3.2 ± 0.45 | Number of compartment explorations ([2]; population as a whole): 4.5 ± 0.7 // | Number of surveillances ([2]; population as a whole): 1.4 ± 0.2 | solubility in 96% alcohol and chloroform [3]: moderately soluble | solubility in water (and saline) [3]: sparingly soluble in water | time of excretion from the body [4]: 72 h | increase of daily urine output, average index ([5]; 25, 50, 100 mg in the morning, first three days): 30-37% | Daily urine volume (ml/day, %) ([5]; 25 mg/day): 130 * % | Daily urine volume (ml/day, %) ([5]; 50 mg/day): 137 * % | Daily urine volume (ml/day, %) ([5]; 100 mg/day): 137 * % | fluctuations in urine output ([5]; next 7 days): 5-10% | LD50 at 14 days [6]: 1030 mg/kg | LD16 ([7]; rats 30-35 days, single i.p.): LD16 = 906.7 mg/kg | LD84 ([7]; rats 30-35 days, single i.p.): LD84 = 1159.0 mg/kg | Dead/total number ([7]; rats 30-35 days, single i.p. 800 mg/kg): 0/10 | Dead/total number ([7]; rats 30-35 days, single i.p. 1000 mg/kg): 4/10 | Dead/total number ([7]; rats 30-35 days, single i.p. 1100 mg/kg): 9/10 | Dead/total number ([7]; rats 30-35 days, single i.p. 1200 mg/kg): 9/10 | Dead/total number ([7]; rats 30-35 days, single i.p. 1500 mg/kg): 10/10 | % of dead rat pups ([7]; single i.p. 800 mg/kg): 0% | % of dead rat pups ([7]; single i.p. 1000 mg/kg): 40% | % of dead rat pups ([7]; single i.p. 1100 mg/kg): 90% | % of dead rat pups ([7]; single i.p. 1200 mg/kg): 90% | % of dead rat pups ([7]; single i.p. 1500 mg/kg): 100% | females left uncovered (of 30) ([8]; 100 mg/kg i.g. daily, after 32 days): 6 | females covered (of 30) [8, 9]: 9 | females covered, % of the total number in the group [8, 9]: 30.0% | females covered (of 30) ([8]; 100 mg/kg i.g. daily, by the morning of day 17): 11 | females covered (of 30) ([8]; 100 mg/kg i.g. daily, by the morning of day 25): 4 | Fertility (% of animals in the group) ([8]; mice, 100 mg/kg): 80.0 * %
